From ChEMBL document CHEMBL5465560, “Selectivity Literature for EUbOPEN Chemogenomic Library” (2024)
Residue numbers refer to the chain shown, from its start.

Columns and labels:
[1] = biological target: Cyclin-dependent kinase 14 (Homo sapiens) (UniProt O94921); test: Selectivity interaction (KinomeScan (DiscoverX)) EUB0000666a CDK14; conditions: at 10 µM
[2] = biological target: Cyclin-dependent kinase 16 (Homo sapiens) (UniProt Q00536); test: Selectivity interaction (KinomeScan (DiscoverX)) EUB0000229b CDK16; conditions: at 10 µM
[3] = biological target: Ribosomal protein S6 kinase alpha-1 (Homo sapiens, UniProt Q15418); test: Selectivity interaction (Kinase panel (KiNativ target engagement assay in Jurkat cells)) EUB0001635a RPS6KA1; type: cell-based; conditions: Selectivity number of off-targets 0.0, Selectivity number of targets 233.0, Source Knowledge https://www.sciencedirect.com/science/article/pii/S2451945619300674?via%3Dihub, at 1 µM
[4] = biological target: Alpha-2A adrenergic receptor (Homo sapiens, UniProt P08913); test: Selectivity interaction (Alpha2A calcium flux assay ) EUB0000877a ADRA2A
[5] = biological target: Maternal embryonic leucine zipper kinase (Homo sapiens) (UniProt Q14680); test: Selectivity interaction (Kinase panel (Invitrogen)) EUB0000639a MELK; conditions: at 200 nM
[6] = biological target: Serine/threonine-protein kinase MARK1 (Homo sapiens) (UniProt Q9P0L2); test: Selectivity interaction (ActivX KiNativ screen (kinase selectivity in THP-1 cell lysates)) EUB0000639a MARK1; type: subcellular; conditions: lysate
[7] = biological target: SRSF protein kinase 2 (Homo sapiens) (UniProt P78362); test: Selectivity interaction (KinomeScan (DiscoverX)) EUB0000595a SRPK2; conditions: at 10 µM
[8] = biological target: Dual specificity protein kinase CLK4 (Homo sapiens, UniProt Q9HAZ1); conditions: at 10 µM
[9] = biological target: Tyrosine-protein kinase Fyn (Homo sapiens) (UniProt P06241); test: Selectivity interaction (ActivX KiNativ screen (ex vivo kinase selectivity in human PBMCs)) EUB0001619a FYN; type: cell-based; conditions: PBMC, at 1 µM
[10] = biological target: Mitogen-activated protein kinase 9 (Homo sapiens, UniProt P45984); test: Selectivity interaction (KinomeScan (DiscoverX)) EUB0000607a MAPK9; conditions: at 10 µM
[11] = test system: T1, Receptor-type tyrosine-protein kinase FLT3 (Homo sapiens), P36888 [N841I]; test: (§1) Selectivity interaction (KinomeScan (DiscoverX)) EUB0000607a FLT3; conditions: at 10 µM
T1 sequence (whole entry): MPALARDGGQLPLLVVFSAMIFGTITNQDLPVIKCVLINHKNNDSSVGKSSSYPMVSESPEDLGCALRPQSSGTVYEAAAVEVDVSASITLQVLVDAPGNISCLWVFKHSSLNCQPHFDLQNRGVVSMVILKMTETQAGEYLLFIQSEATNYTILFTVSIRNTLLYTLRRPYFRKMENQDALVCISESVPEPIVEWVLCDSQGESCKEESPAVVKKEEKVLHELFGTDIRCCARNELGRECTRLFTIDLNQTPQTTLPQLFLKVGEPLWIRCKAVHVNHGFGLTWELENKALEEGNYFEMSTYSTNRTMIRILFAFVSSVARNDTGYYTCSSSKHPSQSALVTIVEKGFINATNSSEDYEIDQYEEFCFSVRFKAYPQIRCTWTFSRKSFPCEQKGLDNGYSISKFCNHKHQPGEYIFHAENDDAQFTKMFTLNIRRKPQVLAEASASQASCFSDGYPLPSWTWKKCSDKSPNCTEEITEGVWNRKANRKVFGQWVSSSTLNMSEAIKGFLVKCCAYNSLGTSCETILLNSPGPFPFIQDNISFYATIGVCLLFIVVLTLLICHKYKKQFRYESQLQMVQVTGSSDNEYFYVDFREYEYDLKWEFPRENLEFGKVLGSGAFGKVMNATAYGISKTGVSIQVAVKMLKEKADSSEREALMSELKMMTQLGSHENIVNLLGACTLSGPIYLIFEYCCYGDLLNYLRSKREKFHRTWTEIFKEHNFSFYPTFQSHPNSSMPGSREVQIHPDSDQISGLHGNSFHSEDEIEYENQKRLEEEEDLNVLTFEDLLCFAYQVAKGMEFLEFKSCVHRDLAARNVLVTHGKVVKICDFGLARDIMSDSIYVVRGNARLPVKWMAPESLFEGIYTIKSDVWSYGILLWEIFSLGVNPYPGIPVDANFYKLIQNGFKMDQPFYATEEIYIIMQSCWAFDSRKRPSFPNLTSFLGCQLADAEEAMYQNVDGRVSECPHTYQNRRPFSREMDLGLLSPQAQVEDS

[12] = test system: Receptor-type tyrosine-protein kinase FLT3 (Homo sapiens), P36888 [UNDEFINED MUTATION]; test: as §1; conditions: at 10 µM
[13] = test system: T2, Receptor-type tyrosine-protein kinase FLT3 (Homo sapiens), P36888 [D835H]; test: as §1; conditions: at 10 µM
T2 sequence (whole entry): T1 sequence (whole entry) with D835H, I841N

Serine/threonine-protein kinase MARK1 (Homo sapiens), sequence (Q9P0L2 whole entry, looked up): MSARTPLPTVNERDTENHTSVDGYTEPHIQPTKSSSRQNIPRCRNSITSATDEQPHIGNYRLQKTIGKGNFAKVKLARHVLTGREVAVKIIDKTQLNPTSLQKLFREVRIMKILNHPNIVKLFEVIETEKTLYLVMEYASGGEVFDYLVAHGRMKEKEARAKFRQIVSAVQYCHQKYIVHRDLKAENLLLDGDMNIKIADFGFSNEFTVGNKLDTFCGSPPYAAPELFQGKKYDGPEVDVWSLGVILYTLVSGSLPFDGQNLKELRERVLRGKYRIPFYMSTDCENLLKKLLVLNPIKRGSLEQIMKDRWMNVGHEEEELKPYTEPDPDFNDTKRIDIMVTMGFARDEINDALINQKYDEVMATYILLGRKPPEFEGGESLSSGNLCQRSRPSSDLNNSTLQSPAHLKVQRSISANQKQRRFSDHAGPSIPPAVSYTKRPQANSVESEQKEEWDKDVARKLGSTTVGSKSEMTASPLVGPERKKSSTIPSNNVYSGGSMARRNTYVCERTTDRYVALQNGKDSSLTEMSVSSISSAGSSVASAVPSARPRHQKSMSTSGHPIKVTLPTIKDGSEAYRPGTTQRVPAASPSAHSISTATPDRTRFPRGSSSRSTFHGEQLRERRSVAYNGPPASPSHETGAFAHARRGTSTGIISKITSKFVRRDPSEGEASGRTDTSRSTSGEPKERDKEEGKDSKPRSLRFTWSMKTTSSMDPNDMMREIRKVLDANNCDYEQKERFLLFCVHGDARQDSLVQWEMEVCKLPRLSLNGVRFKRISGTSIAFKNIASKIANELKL
Ribosomal protein S6 kinase alpha-1, sequence (Q15418 whole entry): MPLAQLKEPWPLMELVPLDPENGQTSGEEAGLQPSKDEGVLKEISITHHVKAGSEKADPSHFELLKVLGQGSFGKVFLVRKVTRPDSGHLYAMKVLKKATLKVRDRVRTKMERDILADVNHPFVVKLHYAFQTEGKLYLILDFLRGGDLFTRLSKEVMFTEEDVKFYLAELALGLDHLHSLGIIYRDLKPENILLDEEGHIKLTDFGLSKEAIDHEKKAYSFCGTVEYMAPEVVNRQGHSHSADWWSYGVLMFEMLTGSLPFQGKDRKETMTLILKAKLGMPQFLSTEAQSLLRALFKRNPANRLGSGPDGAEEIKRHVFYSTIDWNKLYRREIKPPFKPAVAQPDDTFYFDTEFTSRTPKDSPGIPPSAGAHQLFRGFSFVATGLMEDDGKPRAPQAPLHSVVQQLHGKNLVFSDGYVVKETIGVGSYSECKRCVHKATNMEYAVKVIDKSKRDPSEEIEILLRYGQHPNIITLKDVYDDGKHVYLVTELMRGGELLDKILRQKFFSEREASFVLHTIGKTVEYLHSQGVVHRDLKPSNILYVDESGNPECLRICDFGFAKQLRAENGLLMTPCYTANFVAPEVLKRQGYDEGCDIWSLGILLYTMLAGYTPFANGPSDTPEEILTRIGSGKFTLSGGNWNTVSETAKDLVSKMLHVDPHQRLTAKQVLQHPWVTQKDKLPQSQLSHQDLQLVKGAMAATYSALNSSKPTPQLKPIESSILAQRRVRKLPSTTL
Maternal embryonic leucine zipper kinase (Homo sapiens), sequence (Q14680 whole entry, looked up): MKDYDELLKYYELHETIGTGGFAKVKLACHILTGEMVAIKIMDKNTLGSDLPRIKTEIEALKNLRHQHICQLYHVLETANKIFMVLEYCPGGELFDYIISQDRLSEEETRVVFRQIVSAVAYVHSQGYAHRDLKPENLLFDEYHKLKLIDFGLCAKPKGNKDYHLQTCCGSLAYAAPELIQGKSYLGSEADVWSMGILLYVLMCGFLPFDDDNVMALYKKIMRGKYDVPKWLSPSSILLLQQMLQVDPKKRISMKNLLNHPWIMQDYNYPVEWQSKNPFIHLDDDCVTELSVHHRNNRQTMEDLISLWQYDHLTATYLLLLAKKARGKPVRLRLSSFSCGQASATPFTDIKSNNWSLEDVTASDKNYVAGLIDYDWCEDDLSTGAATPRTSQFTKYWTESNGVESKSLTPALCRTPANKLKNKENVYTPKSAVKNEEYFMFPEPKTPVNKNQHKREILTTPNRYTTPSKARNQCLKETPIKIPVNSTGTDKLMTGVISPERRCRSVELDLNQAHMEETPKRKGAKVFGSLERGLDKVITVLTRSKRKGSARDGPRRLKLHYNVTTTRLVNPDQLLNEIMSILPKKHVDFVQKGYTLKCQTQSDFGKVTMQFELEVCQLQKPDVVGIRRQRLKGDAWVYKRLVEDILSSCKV
Tyrosine-protein kinase Fyn (Homo sapiens), sequence (P06241 2-537 limits assumed): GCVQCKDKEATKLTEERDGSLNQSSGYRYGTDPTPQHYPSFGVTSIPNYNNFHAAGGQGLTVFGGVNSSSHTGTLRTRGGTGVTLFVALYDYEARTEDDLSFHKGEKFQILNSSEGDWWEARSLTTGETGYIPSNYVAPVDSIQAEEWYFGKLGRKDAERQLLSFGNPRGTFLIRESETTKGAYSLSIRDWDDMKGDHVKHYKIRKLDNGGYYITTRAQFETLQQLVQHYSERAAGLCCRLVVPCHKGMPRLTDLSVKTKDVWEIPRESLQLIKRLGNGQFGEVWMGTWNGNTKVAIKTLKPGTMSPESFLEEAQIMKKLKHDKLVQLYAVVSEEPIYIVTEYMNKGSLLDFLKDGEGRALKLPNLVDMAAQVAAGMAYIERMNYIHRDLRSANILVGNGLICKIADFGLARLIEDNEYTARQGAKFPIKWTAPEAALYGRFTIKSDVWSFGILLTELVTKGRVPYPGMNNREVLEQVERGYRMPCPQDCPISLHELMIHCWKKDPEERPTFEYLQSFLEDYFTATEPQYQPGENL
SRSF protein kinase 2 (Homo sapiens), sequence (P78362 whole entry, looked up): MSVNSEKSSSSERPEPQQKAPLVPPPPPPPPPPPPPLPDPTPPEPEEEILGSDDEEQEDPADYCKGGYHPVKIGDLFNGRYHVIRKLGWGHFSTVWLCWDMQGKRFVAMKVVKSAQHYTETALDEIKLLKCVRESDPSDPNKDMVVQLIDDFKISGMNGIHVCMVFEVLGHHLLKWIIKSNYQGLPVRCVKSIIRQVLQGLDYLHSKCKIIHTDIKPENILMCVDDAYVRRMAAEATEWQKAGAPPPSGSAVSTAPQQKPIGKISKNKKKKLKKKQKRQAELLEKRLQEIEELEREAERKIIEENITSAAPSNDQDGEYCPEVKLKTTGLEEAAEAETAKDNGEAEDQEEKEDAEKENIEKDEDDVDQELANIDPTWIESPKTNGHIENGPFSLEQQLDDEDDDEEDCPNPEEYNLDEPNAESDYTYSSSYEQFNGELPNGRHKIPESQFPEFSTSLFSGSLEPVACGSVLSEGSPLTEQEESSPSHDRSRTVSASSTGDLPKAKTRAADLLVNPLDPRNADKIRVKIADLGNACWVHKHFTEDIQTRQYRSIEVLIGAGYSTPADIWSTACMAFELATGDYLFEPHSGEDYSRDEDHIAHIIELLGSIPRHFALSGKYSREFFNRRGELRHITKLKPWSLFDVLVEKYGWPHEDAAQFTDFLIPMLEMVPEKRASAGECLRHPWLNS
Alpha-2A adrenergic receptor, sequence (P08913 whole entry): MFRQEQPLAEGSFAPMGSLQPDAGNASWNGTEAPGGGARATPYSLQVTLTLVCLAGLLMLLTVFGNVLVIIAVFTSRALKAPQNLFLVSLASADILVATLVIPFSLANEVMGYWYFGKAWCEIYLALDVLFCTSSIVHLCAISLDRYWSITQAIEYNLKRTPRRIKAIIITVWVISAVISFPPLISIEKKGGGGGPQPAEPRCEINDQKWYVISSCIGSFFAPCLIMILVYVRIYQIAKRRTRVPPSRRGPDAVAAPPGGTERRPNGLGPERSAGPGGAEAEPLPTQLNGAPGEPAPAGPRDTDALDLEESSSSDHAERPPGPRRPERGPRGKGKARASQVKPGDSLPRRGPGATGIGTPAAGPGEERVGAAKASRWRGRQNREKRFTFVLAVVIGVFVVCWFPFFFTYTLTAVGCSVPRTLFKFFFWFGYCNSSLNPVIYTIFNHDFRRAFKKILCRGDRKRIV
Cyclin-dependent kinase 14 (Homo sapiens), sequence (O94921 whole entry): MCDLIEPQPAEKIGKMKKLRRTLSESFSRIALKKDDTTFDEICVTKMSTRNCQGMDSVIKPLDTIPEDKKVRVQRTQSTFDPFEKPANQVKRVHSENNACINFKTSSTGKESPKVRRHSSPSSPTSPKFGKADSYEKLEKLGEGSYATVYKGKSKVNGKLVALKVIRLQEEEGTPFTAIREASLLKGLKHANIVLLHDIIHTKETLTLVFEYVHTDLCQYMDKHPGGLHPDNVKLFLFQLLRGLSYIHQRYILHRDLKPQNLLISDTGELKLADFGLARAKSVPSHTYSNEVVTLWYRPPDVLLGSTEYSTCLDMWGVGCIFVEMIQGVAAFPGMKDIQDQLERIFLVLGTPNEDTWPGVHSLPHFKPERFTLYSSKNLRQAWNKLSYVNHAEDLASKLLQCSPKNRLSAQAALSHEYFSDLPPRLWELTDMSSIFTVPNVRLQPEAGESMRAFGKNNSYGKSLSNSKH
Dual specificity protein kinase CLK4, sequence (Q9HAZ1 whole entry, looked up): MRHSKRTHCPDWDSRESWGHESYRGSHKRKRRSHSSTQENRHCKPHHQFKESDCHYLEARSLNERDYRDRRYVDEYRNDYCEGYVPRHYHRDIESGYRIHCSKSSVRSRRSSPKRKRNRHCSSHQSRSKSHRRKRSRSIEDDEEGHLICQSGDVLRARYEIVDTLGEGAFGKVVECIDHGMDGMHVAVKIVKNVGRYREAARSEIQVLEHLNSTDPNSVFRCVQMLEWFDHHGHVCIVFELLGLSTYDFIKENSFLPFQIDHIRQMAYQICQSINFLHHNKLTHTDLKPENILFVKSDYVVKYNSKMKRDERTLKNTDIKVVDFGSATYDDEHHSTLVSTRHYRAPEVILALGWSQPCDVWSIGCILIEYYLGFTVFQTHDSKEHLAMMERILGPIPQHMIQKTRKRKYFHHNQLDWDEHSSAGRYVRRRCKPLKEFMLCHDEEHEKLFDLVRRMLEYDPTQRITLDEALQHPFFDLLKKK

O=C(NOC[C@H](O)CO)c1ccc(F)c(F)c1Nc1ccc(I)cc1F
% of control [1]: 100%

COc1cc(N(C)c2ccnc3ccc(C(F)(F)F)cc23)cc(OC)c1OC
% binding [2]: 85%

C=CC(=O)Nc1ccc(C(=O)Nc2[nH]nc3c2CN(C(=O)N[C@H](CN(C)C)c2ccccc2)C3(C)C)cc1
% of engagement [3]: -0.1%

CCC(=O)N1CC[C@H](Nc2ncnc3c2CN(c2cnc(OC)c(C(F)(F)F)c2)CC3)C1 [LENIOLISIB]
IC50 [4]: > 30 µM

CC[C@@H]1[C@H](F)C(=O)N[C@@H]1COc1nccc2cc(C(N)=O)c(OC)cc12 [ZIMLOVISERTIB]
% of inhibition [5]: 25.9% | % of inhibition ([6]; at 0.01 µM): -5.4% | % of inhibition ([6]; at 0.04 µM): 8.3% | % of inhibition ([6]; at 0.2 µM): 8.4% | % of inhibition ([6]; at 1 µM): 26.6% | % of inhibition ([6]; at 5 µM): 51.5%

COCC(=O)NC/C=C/c1ccc2ncnc(Nc3ccc(Oc4ccc(C)nc4)c(C)c3)c2c1 [CP-724714]
% of control [7]: 92%

Cc1cc([C@@H](C)Nc2ccccc2C(=O)O)c2nc(N3CCOCC3)cc(=O)n2c1 [AZD-6482]
% of control [8]: 68%

N#Cc1cccc(-c2c[nH]c3ncnc(N4CCOCC4)c23)c1
% of inhibition [9]: -9%

CNC(=O)Nc1ccc(-c2nc(N3CC4CCC(C3)O4)c3cnn(C4CCC5(CC4)OCCO5)c3n2)cc1
% of control [10]: 85% | % of control [11]: 89% | % of control [12]: 100% | % of control [13]: 82%
